Experimental data as given in BindingDB's records for PubMed 1464308 (Cnrs, 1992).

Each molecule was assayed against 5-hydroxytryptamine receptor 5A (Mus musculus, UniProt P30966).
Sequence of 5-hydroxytryptamine receptor 5A (P30966 whole entry): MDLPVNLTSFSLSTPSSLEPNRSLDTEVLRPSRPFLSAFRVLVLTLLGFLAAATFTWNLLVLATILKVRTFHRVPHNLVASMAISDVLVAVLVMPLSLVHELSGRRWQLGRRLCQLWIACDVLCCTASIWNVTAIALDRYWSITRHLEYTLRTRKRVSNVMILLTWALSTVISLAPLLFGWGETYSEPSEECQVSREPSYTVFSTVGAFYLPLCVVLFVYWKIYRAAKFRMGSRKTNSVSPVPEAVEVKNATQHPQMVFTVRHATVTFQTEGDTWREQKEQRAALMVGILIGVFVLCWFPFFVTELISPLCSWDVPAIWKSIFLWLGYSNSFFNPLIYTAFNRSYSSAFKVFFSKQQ

| Compound | Ki |
| --- | --- |
| CN1C[C@H](C(=O)N[C@]2(C)O[C@@]3(O)[C@@H]4CCCN4C(=O)[C@H](Cc4ccccc4)N3C2=O)C=C2c3cccc4[nH]cc(c34)C[C@H]21 [12'-hydroxy-2'-methyl-5'alpha-(phenylmethyl)ergotaman-3',6',18-trione] | 3.98 nM |
| NCCc1ccc(O)c(O)c1 | > 10000 nM |
| FC(F)(F)c1cccc(N2CCNCC2)c1 [TFMPP] | 2510 nM |
| NCC(O)c1ccc(O)c(O)c1 (stereo not drawn) [Noradrenaline,(+)] | > 10000 nM |
| O=C(CCCN1CCC2(CC1)C(=O)NCN2c1ccccc1)c1ccc(F)cc1 [8-[4-(4-fluorophenyl)-4-oxidanylidene-butyl]-1-phenyl-1,3,8-triazaspiro[4.5]decan-4-one] | 2510 nM |
| CSc1ccc2c(c1)C(N1CCN(C)CC1)Cc1ccccc1S2 (centres undefined) [methanesulfonic acid;1-methyl-4-(3-methylsulfanyl-5,6-dihydrobenzo[b][1]benzothiepin-5-yl)piperazine] | 100 nM |
| CCN(CC)C(=O)[C@@H]1C=C2c3cccc4[nH]c(Br)c(c34)C[C@H]2N(C)C1 [LSD,2-Bromo] | 1.99 nM |
| O=C(c1ccc(F)cc1)C1CCN(CCn2c(=O)[nH]c3ccccc3c2=O)CC1 [3-(2-{4-[(4-fluorophenyl)carbonyl]piperidin-1-yl}ethyl)-1,2,3,4-tetrahydroquinazoline-2,4-dione] | > 10000 nM |
| CCCN(CCC)C1CCc2cccc(O)c2C1 (centres undefined) | 1260 nM |
| COc1ccc2[nH]cc(C3=CCNCC3)c2c1 [5-Methoxy-3-(1,2,3,6-tetrahydro-pyridin-4-yl)-1H-indole(RU-24969)] | 316 nM |
| CC[C@@H](CO)NC(=O)[C@@H]1C=C2c3cccc4c3c(cn4C)C[C@H]2N(C)C1 | 63.1 nM |
| CNS(=O)(=O)Cc1ccc2[nH]cc(CCN(C)C)c2c1 [Sumax] | > 10000 nM |
| CC(C)NCC(O)COc1cccc2[nH]ccc12 (centres undefined) [LB-46] | > 10000 nM |
| CN(C)CCc1c[nH]c2ccc(O)cc12 [3-[2-(dimethylamino)ethyl]indol-5-ol] | 1000 nM |
